Laboratory results from ChEMBL document CHEMBL4052801, “Design, synthesis and anticancer activity of N-(1-(4-(dibenzo[b,f][1,4]thiazepin-11-yl)piperazin-1-yl)-1-oxo-3-phenylpropan-2-yl derivatives” (Bioorg Med Chem Lett, 2017).

What follows are compounds tested against T1, NAD-dependent protein deacetylase sirtuin-1 (Homo sapiens) (UniProt Q96EB6) (assay: Inhibition of human Sirt1 at 10 uM using fluorophore-labelled peptide as substrate measured after 15 mins by fluorescence assay relative to control). Conditions: not given.
T1 sequence (whole entry): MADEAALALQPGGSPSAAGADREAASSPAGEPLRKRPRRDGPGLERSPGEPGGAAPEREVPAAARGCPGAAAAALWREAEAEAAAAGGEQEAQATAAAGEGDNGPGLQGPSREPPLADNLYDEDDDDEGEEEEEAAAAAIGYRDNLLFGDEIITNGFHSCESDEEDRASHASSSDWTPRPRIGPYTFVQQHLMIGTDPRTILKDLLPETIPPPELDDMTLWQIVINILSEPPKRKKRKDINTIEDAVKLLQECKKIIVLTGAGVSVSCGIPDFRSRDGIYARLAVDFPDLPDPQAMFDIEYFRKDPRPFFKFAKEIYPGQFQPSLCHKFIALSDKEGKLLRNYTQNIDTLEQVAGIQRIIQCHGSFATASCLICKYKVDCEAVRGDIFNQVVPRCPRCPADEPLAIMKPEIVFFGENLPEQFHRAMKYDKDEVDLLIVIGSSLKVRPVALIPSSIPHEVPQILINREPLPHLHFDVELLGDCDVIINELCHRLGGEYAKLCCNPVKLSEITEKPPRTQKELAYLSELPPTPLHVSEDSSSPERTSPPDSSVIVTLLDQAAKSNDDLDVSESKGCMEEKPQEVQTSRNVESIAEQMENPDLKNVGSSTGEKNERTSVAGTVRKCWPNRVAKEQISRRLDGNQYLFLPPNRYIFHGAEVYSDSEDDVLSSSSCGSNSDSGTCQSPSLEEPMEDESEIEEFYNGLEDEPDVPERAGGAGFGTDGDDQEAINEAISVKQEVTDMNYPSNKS

Compared with `O=C(NC(Cc1ccccc1)C(=O)N1CCN(C2=Nc3ccccc3Sc3ccccc32)CC1)c1ccc(OC(F)F)cc1` (configuration not stated), `O=C(NC(Cc1ccccc1)C(=O)N1CCN(C2=Nc3ccccc3Sc3ccccc32)CC1)c1ccoc1` (configuration not stated) is lower in inhibition: 71% for the first, 51% for the second.

First: O=C(NC(Cc1ccccc1)C(=O)N1CCN(C2=Nc3ccccc3Sc3ccccc32)CC1)c1cnccn1 (configuration not stated)
Second: Cc1ccc(C)c(C(=O)NC(Cc2ccccc2)C(=O)N2CCN(C3=Nc4ccccc4Sc4ccccc43)CC2)c1 (configuration not stated)
The inhibition of the first is higher: 62% for the first, 54% for the second.

With `CC(C)(C(=O)NC(Cc1ccccc1)C(=O)N1CCN(C2=Nc3ccccc3Sc3ccccc32)CC1)c1ccc(C(=O)C2CC2)cc1` (configuration not stated) the inhibition was 44%.

Each compound was assayed on COLO 205 (assay: Cytotoxicity against human COLO205 cells after 24 hrs by MTT assay). Conditions: COLO 205, 24 h.
Type: functional, cell-based

`CS(=O)(=O)c1ccc(CC(=O)NC(Cc2ccccc2)C(=O)N2CCN(C3=Nc4ccccc4Sc4ccccc43)CC2)cc1` (configuration not stated) and `CCc1ccc(C(=O)NC(Cc2ccccc2)C(=O)N2CCN(C3=Nc4ccccc4Sc4ccccc43)CC2)cc1` (configuration not stated) are within 1.5-fold of each other in IC50: 32 µM for the first, 25 µM for the second.

First: Cc1ccc(C(=O)NC(Cc2ccccc2)C(=O)N2CCN(C3=Nc4ccccc4Sc4ccccc43)CC2)cc1I (configuration not stated)
Second: Cc1ccc(Br)cc1C(=O)NC(Cc1ccccc1)C(=O)N1CCN(C2=Nc3ccccc3Sc3ccccc32)CC1 (configuration not stated)
The IC50 of the first is 2.8-fold higher: 45 µM for the first, 16 µM for the second. The second is the more potent here.

Compared with `O=C(Cc1ccc2c(c1)OCO2)NC(Cc1ccccc1)C(=O)N1CCN(C2=Nc3ccccc3Sc3ccccc32)CC1` (configuration not stated), `O=C(CCc1cccc(Cl)c1)NC(Cc1ccccc1)C(=O)N1CCN(C2=Nc3ccccc3Sc3ccccc32)CC1` (configuration not stated) is 1.5-fold lower in IC50: 24 µM for the first, 16 µM for the second.

`Cc1ccc(C(=O)NC(Cc2ccccc2)C(=O)N2CCN(C3=Nc4ccccc4Sc4ccccc43)CC2)cn1` (configuration not stated) and `O=C(NC(Cc1ccccc1)C(=O)N1CCN(C2=Nc3ccccc3Sc3ccccc32)CC1)c1ccc(I)cc1` (configuration not stated) are within 1.5-fold of each other in IC50: 34 µM for the first, 28 µM for the second.

First: O=C(NC(Cc1ccccc1)C(=O)N1CCN(C2=Nc3ccccc3Sc3ccccc32)CC1)c1ccc(OC(F)F)cc1 (configuration not stated)
Second: N#Cc1ccc(C(=O)NC(Cc2ccccc2)C(=O)N2CCN(C3=Nc4ccccc4Sc4ccccc43)CC2)cc1 (configuration not stated)
The IC50 of the first is 2.9-fold lower: 10 µM for the first, 29 µM for the second.

`O=C(NC(Cc1ccccc1)C(=O)N1CCN(C2=Nc3ccccc3Sc3ccccc32)CC1)c1cnccn1` (configuration not stated) and `O=C(NC(Cc1ccccc1)C(=O)N1CCN(C2=Nc3ccccc3Sc3ccccc32)CC1)c1ccoc1` (configuration not stated) are within 1.5-fold of each other in IC50: 15 µM for the first, 14 µM for the second.

`COC(=O)CCCC(=O)NC(Cc1ccccc1)C(=O)N1CCN(C2=Nc3ccccc3Sc3ccccc32)CC1` (configuration not stated) and `CCOC(=O)CCCC(=O)NC(Cc1ccccc1)C(=O)N1CCN(C2=Nc3ccccc3Sc3ccccc32)CC1` (configuration not stated) are within 1.5-fold of each other in IC50: 28 µM for the first, 36 µM for the second.

Going from `CC(=O)CCCC(=O)NC(Cc1ccccc1)C(=O)N1CCN(C2=Nc3ccccc3Sc3ccccc32)CC1` (configuration not stated) to `Cc1ccc(C)c(C(=O)NC(Cc2ccccc2)C(=O)N2CCN(C3=Nc4ccccc4Sc4ccccc43)CC2)c1` (configuration not stated), the IC50 falls from 33 µM to 12 µM (2.8-fold). The second is the more potent here.

Compared with `CCN(CC)CCNC(=O)c1c(C)[nH]c(/C=C2\C(=O)Nc3ccc(F)cc32)c1C` [SUNITINIB], `Cc1ccc(C(=O)NC(Cc2ccccc2)C(=O)N2CCN(C3=Nc4ccccc4Sc4ccccc43)CC2)c(C)c1` (configuration not stated) is 5-fold higher in IC50: 8 µM for the first, 40 µM for the second. The first is the more potent here.

Compound `CC(C)(C(=O)NC(Cc1ccccc1)C(=O)N1CCN(C2=Nc3ccccc3Sc3ccccc32)CC1)c1ccc(C(=O)C2CC2)cc1` (configuration not stated) has an IC50 of 17 µM.

The compounds below were run on MDA-MB-231 (assay: Cytotoxicity against human MDA-MB-231 cells after 24 hrs by MTT assay). Conditions: MDA-MB-231, 24 h.
Type: functional, cell-based

`CS(=O)(=O)c1ccc(CC(=O)NC(Cc2ccccc2)C(=O)N2CCN(C3=Nc4ccccc4Sc4ccccc43)CC2)cc1` (configuration not stated) and `CCc1ccc(C(=O)NC(Cc2ccccc2)C(=O)N2CCN(C3=Nc4ccccc4Sc4ccccc43)CC2)cc1` (configuration not stated) are within 1.5-fold of each other in IC50: 56 µM for the first, 44 µM for the second.

`Cc1ccc(C(=O)NC(Cc2ccccc2)C(=O)N2CCN(C3=Nc4ccccc4Sc4ccccc43)CC2)cc1I` (configuration not stated) and `Cc1ccc(Br)cc1C(=O)NC(Cc1ccccc1)C(=O)N1CCN(C2=Nc3ccccc3Sc3ccccc32)CC1` (configuration not stated) are within 1.5-fold of each other in IC50: 59 µM for the first, 49 µM for the second.

`O=C(Cc1ccc2c(c1)OCO2)NC(Cc1ccccc1)C(=O)N1CCN(C2=Nc3ccccc3Sc3ccccc32)CC1` (configuration not stated) and `O=C(CCc1cccc(Cl)c1)NC(Cc1ccccc1)C(=O)N1CCN(C2=Nc3ccccc3Sc3ccccc32)CC1` (configuration not stated) are within 1.5-fold of each other in IC50: 52 µM for the first, 59 µM for the second.

`Cc1ccc(C(=O)NC(Cc2ccccc2)C(=O)N2CCN(C3=Nc4ccccc4Sc4ccccc43)CC2)cn1` (configuration not stated) and `O=C(NC(Cc1ccccc1)C(=O)N1CCN(C2=Nc3ccccc3Sc3ccccc32)CC1)c1ccc(I)cc1` (configuration not stated) are within 1.5-fold of each other in IC50: 54 µM for the first, 55 µM for the second.

Going from `O=C(NC(Cc1ccccc1)C(=O)N1CCN(C2=Nc3ccccc3Sc3ccccc32)CC1)c1ccc(OC(F)F)cc1` (configuration not stated) to `N#Cc1ccc(C(=O)NC(Cc2ccccc2)C(=O)N2CCN(C3=Nc4ccccc4Sc4ccccc43)CC2)cc1` (configuration not stated), the IC50 rises from 39 µM to 61 µM (1.6-fold). The first is the more potent here.

`O=C(NC(Cc1ccccc1)C(=O)N1CCN(C2=Nc3ccccc3Sc3ccccc32)CC1)c1cnccn1` (configuration not stated) and `O=C(NC(Cc1ccccc1)C(=O)N1CCN(C2=Nc3ccccc3Sc3ccccc32)CC1)c1ccoc1` (configuration not stated) are within 1.5-fold of each other in IC50: 38 µM for the first, 37 µM for the second.

`COC(=O)CCCC(=O)NC(Cc1ccccc1)C(=O)N1CCN(C2=Nc3ccccc3Sc3ccccc32)CC1` (configuration not stated) and `CCOC(=O)CCCC(=O)NC(Cc1ccccc1)C(=O)N1CCN(C2=Nc3ccccc3Sc3ccccc32)CC1` (configuration not stated) are within 1.5-fold of each other in IC50: 64 µM for the first, 48 µM for the second.

Going from `CC(=O)CCCC(=O)NC(Cc1ccccc1)C(=O)N1CCN(C2=Nc3ccccc3Sc3ccccc32)CC1` (configuration not stated) to `Cc1ccc(C)c(C(=O)NC(Cc2ccccc2)C(=O)N2CCN(C3=Nc4ccccc4Sc4ccccc43)CC2)c1` (configuration not stated), the IC50 falls from 52 µM to 34 µM (1.5-fold).

`CCN(CC)CCNC(=O)c1c(C)[nH]c(/C=C2\C(=O)Nc3ccc(F)cc32)c1C` [SUNITINIB] and `Cc1ccc(C(=O)NC(Cc2ccccc2)C(=O)N2CCN(C3=Nc4ccccc4Sc4ccccc43)CC2)c(C)c1` (configuration not stated) are within 1.5-fold of each other in IC50: 32 µM for the first, 37 µM for the second.

`CC(C)(C(=O)NC(Cc1ccccc1)C(=O)N1CCN(C2=Nc3ccccc3Sc3ccccc32)CC1)c1ccc(C(=O)C2CC2)cc1` (configuration not stated) was tested, and the IC50 was 34 µM.

These compounds were tested on K562 (assay: Cytotoxicity against human K562 cells after 24 hrs by MTT assay). Conditions: K562, 24 h.
Type: functional, cell-based

`CS(=O)(=O)c1ccc(CC(=O)NC(Cc2ccccc2)C(=O)N2CCN(C3=Nc4ccccc4Sc4ccccc43)CC2)cc1` (configuration not stated) and `CCc1ccc(C(=O)NC(Cc2ccccc2)C(=O)N2CCN(C3=Nc4ccccc4Sc4ccccc43)CC2)cc1` (configuration not stated) are within 1.5-fold of each other in IC50: 28 µM for the first, 21 µM for the second.

`Cc1ccc(C(=O)NC(Cc2ccccc2)C(=O)N2CCN(C3=Nc4ccccc4Sc4ccccc43)CC2)cc1I` (configuration not stated) and `Cc1ccc(Br)cc1C(=O)NC(Cc1ccccc1)C(=O)N1CCN(C2=Nc3ccccc3Sc3ccccc32)CC1` (configuration not stated) are within 1.5-fold of each other in IC50: 36 µM for the first, 27 µM for the second.

`O=C(Cc1ccc2c(c1)OCO2)NC(Cc1ccccc1)C(=O)N1CCN(C2=Nc3ccccc3Sc3ccccc32)CC1` (configuration not stated) and `O=C(CCc1cccc(Cl)c1)NC(Cc1ccccc1)C(=O)N1CCN(C2=Nc3ccccc3Sc3ccccc32)CC1` (configuration not stated) are within 1.5-fold of each other in IC50: 35 µM for the first, 27 µM for the second.

First: Cc1ccc(C(=O)NC(Cc2ccccc2)C(=O)N2CCN(C3=Nc4ccccc4Sc4ccccc43)CC2)cn1 (configuration not stated)
Second: O=C(NC(Cc1ccccc1)C(=O)N1CCN(C2=Nc3ccccc3Sc3ccccc32)CC1)c1ccc(I)cc1 (configuration not stated)
The IC50 of the first is 1.5-fold higher: 39 µM for the first, 26 µM for the second.

Compared with `O=C(NC(Cc1ccccc1)C(=O)N1CCN(C2=Nc3ccccc3Sc3ccccc32)CC1)c1ccc(OC(F)F)cc1` (configuration not stated), `N#Cc1ccc(C(=O)NC(Cc2ccccc2)C(=O)N2CCN(C3=Nc4ccccc4Sc4ccccc43)CC2)cc1` (configuration not stated) is 2-fold higher in IC50: 12 µM for the first, 24 µM for the second. The first is the more potent here.

`O=C(NC(Cc1ccccc1)C(=O)N1CCN(C2=Nc3ccccc3Sc3ccccc32)CC1)c1cnccn1` (configuration not stated) and `O=C(NC(Cc1ccccc1)C(=O)N1CCN(C2=Nc3ccccc3Sc3ccccc32)CC1)c1ccoc1` (configuration not stated) are within 1.5-fold of each other in IC50: 16 µM for the first, 17 µM for the second.

`COC(=O)CCCC(=O)NC(Cc1ccccc1)C(=O)N1CCN(C2=Nc3ccccc3Sc3ccccc32)CC1` (configuration not stated) and `CCOC(=O)CCCC(=O)NC(Cc1ccccc1)C(=O)N1CCN(C2=Nc3ccccc3Sc3ccccc32)CC1` (configuration not stated) are within 1.5-fold of each other in IC50: 19 µM for the first, 20 µM for the second.

First: CC(=O)CCCC(=O)NC(Cc1ccccc1)C(=O)N1CCN(C2=Nc3ccccc3Sc3ccccc32)CC1 (configuration not stated)
Second: Cc1ccc(C)c(C(=O)NC(Cc2ccccc2)C(=O)N2CCN(C3=Nc4ccccc4Sc4ccccc43)CC2)c1 (configuration not stated)
The IC50 of the first is 2-fold higher: 32 µM for the first, 16 µM for the second. The second is the more potent here.

Going from `CCN(CC)CCNC(=O)c1c(C)[nH]c(/C=C2\C(=O)Nc3ccc(F)cc32)c1C` [SUNITINIB] to `Cc1ccc(C(=O)NC(Cc2ccccc2)C(=O)N2CCN(C3=Nc4ccccc4Sc4ccccc43)CC2)c(C)c1` (configuration not stated), the IC50 rises from 14 µM to 35 µM (2.5-fold).

`CC(C)(C(=O)NC(Cc1ccccc1)C(=O)N1CCN(C2=Nc3ccccc3Sc3ccccc32)CC1)c1ccc(C(=O)C2CC2)cc1` (configuration not stated) was tested, and the IC50 was 14 µM.
